Data on 14 molecules can be found in patent US9550741B2, “Benzoisothiazole compounds and methods of treating schizophrenia” (SHANGHAI INSTITUTE OF PHARMACEUTICAL INDUSTRY, priority 2013, dated 2017).

One data set in a line: in vivo. The settings on record: mouse. As for the experimental part: Observation of general symptoms: the animals are observed at about 0.5, 1, 2, 4, and 6 hours respectively, after the first administration on the first day, and observed twice a day, one in the morning and one in the afternoon, on the second to the sixth day. Observed objects include but are not limited to general condition, behavior activity, gait and posture, eye, mouth, nose, gastrointestinal tract, skin and hair, and genitourinary tract. • (2) Statistical Analysis
Body weight is expressed in mean±SD. Comparison among groups is carried out with Levene's test and one-way ANOVA, followed by Dunnet t test if there exists a difference.
(1) The acute toxicity of the representative compounds of □, □, □ classes is investigated with the method of Example 81.

Another data set has as its target D2 receptor (Homo sapiens (Human), UniProt P14416). In words: Dopamine D2 receptor binding test. The settings on record: [3H]Spiperone, D2 receptor expressed in HEK293 cells; read-out: Affinity of the compound to D2 receptor, Ki value. From the text: This experiment utilizes the plasmid vector containing the gene of D2 receptor protein for transfecting HEK293 cells by calcium phosphate transfection method.
(§1) Beckman LS-6500 multifunction liquid scintillation counter.

The target in data set [1] is human recombinant D3 receptor (Homo sapiens (Human), UniProt P35462). In words: Dopamine D3 receptor binding test. The settings on record: read-out: Affinity of the compound to D3 receptor, Ki value. Here is the method: With [^3H]methyl-spiperone (0.3 nM) as the ligand and (+)-butaclamol (10 LM) for determining non-specific binding, binding tests are carried out on human recombinant D3 receptor (expressed in CHO cells).

Data set [2] concerns Apo.-induced schizophrenic mouse model. In words: Apomorphine-induced schizophrenic mouse model, stereotyped behaviors. Type of data set: in vivo. The settings on record: for ED50: Mus musculus, single oral administration, Apo.-induced model, read-out: ED50, inhibition of the total stereotyped behaviors; for Score of stereotyped behaviors: total score in 60 min, mean ± SD. Here is the method:
The drugs are administered by gastric gavage. The model control group is given the same volume of solvent by gastric gavage.
Total score of the stereotyped behaviors of the mice such as tail erection and wall-climbing in the 60 minutes is calculated.
The clinical response symptoms of the animals shall be recorded during the administration and test procedures.

In data set [3] the test system is Salmonella typhimurium TA98 and TA100. In words: Bacterial reverse mutation test (Ames). The settings on record: TA98 and TA100, with or without S9.
In data set [4] the test system is MK-801-induced schizophrenic mouse model. Kind of data set: MK-801-induced schizophrenic mouse model, open-field movement. The settings on record: for ED50: Mus musculus, po, read-out: ED50, total distance of the open-field movement; for Total distance of the spontaneous movement (cm): 60 min, mean ± SD.
Another data set addresses 5-HT2A receptor (Homo sapiens (Human), UniProt P28223). In words: 5-HT2A receptor binding test. The settings on record: read-out: Affinity of the compound to 5-HT2A receptor, Ki value.
Description: as §1

Another data set concerns the target 5-HT1A receptor (Homo sapiens (Human), UniProt P08908). In words: 5-HT1A receptor binding test. The settings on record: read-out: Affinity of the compound to 5-HT1A receptor, Ki value; [3H]8-OH-DPAT, HEK-293 cells expressing 5-HT1A receptors. Here is the method: Cells: HEK-293 cells stably expressing 5-HT1A receptors as obtained by gene recombination are cultured for 3-5 days in cell culture medium DMEM supplemented with 10% serum.
Competitive inhibition ratio of each compound at the concentration of 10 μmol/L to inhibit the binding of [^3H]8-OH-DPAT to 5-HT1A receptor is determined for primary screening.
The components are mixed to homogeneity, and then the above tubes are transferred to water bath at 30° C. (1 h), removed into ice bath immediately, and suction filtered on Harvest (with ice cold Tris eluate for 5 times).

Setting [5] is: [3H]-Ketanserin, 5-HT2A receptor expressed in HEK293 cells.
[6] abbreviates: [3H]methyl-spiperone 0.3 nM, human recombinant D3 receptor in CHO cells.
Setting [7] is: single oral administration, ICR mice, read-out: LD50.

Each structure is given as a SMILES string. Like-named read-outs stand apart in the source and are kept apart here. A value given as a limit tells only on which side of the number the result lay.

Chain of 5-HT2A receptor (P28223 whole entry): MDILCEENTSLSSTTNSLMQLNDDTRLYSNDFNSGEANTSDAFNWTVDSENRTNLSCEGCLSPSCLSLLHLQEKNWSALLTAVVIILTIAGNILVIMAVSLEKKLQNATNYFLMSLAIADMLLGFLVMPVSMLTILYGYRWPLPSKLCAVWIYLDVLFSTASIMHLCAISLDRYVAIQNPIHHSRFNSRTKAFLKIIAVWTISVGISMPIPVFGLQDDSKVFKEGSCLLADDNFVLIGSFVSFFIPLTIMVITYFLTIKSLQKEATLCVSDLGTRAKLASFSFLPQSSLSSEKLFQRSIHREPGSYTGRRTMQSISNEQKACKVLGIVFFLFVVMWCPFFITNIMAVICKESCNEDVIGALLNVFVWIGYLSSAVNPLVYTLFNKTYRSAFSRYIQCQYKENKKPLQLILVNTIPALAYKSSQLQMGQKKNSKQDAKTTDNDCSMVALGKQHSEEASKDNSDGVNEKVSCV
Chain of 5-HT1A receptor (P08908 whole entry): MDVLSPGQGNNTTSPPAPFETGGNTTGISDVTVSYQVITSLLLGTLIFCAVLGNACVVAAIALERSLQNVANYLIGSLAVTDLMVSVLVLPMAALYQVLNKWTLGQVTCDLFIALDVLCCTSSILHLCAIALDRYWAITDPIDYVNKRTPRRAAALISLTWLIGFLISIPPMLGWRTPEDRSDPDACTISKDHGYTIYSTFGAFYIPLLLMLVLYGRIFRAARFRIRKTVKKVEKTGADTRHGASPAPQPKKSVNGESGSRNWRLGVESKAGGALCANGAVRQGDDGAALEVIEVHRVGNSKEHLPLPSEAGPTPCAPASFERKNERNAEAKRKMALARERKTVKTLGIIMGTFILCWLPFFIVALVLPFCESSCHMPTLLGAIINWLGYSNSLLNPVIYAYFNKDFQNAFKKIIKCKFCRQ
Chain of human recombinant D3 receptor (P35462 whole entry): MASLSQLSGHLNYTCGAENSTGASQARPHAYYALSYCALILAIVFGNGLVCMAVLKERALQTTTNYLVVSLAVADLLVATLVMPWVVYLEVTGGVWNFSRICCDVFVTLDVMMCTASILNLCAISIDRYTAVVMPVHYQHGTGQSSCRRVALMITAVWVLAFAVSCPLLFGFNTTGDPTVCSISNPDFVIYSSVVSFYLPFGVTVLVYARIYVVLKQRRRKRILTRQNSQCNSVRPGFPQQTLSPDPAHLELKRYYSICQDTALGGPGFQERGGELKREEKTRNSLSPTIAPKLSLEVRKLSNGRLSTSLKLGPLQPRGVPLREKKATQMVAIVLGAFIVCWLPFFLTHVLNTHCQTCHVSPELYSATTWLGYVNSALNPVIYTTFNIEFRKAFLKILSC
Chain of D2 receptor (P14416 whole entry): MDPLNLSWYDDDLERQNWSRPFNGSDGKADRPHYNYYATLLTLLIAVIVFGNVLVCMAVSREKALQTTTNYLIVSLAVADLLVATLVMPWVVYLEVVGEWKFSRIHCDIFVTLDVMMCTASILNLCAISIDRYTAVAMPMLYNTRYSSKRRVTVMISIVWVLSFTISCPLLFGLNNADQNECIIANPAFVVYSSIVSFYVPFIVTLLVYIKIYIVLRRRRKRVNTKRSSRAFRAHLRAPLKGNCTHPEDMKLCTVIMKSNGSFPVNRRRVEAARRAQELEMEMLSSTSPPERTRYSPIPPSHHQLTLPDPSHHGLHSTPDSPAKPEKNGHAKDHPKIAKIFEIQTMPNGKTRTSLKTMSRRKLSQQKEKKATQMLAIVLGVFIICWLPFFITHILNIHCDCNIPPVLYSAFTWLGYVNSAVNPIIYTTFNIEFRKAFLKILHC

As to `O=C(N[C@H]1CC[C@H](CCN2CCN(c3nsc4ccccc34)CC2)CC1)c1cc2ccccc2[nH]1` [Compound I-4, trans-N-(4-(2-(4-(benzo[d]isothiazol-3-yl)piperazin-1-yl)ethyl)cyclohexyl)-1H-indolyl-2-carboxamide], in the data set “in vivo” (ICR, po), the median lethal dose (LD50) (usually the dose expected to kill half of the subjects tested) at 6 days is greater than 2000 mg/kg. The Ki (commonly the equilibrium dissociation constant of an inhibitor or competing ligand from its target) came out at 0.43 nM at D2 receptor and 0.029 nM in data set [1]. Also, the ED50 (as a rule, the dose that gives a 50% effect, or the effect in half of the subjects) in data set [2] amounted to 0.37 mg/kg; in data set [4], 0.073 mg/kg. In addition, in data set [3], the “Ames test result (colonies with reverse mutations)” value (shortened to “Ames test result”) was “negative”.
Molecule `O=C(N[C@H]1CC[C@H](CCN2CCN(c3nsc4ccccc34)CC2)CC1)c1cc2ccccc2s1` [Compound I-6, trans-N-(4-(2-(4-(benzo[d]isothiazol-3-yl)piperazin-1-yl)ethyl)cyclohexyl)benzo[b]thienyl-2-carboxamide] yielded a 50% lethal dose (LD50) at 6 days in the data set “in vivo” (ICR, po) greater than 2000 mg/kg. The Ki amounted to 0.72 nM on 5-HT2A receptor, 1.81 nM on D2 receptor and 0.035 nM in data set [1]. Besides, the ED50 in data set [2] was 0.23 mg/kg; in data set [4] it was 0.038 mg/kg. Also, in data set [2] (apomorphine mouse model, oral), the “effect on stereotyped behaviors (in words)” value is listed as “greater improvement ratio than RGH-188”. The “Score of stereotyped behaviors” value amounted to 23.02 ± 8.32 in data set [2] (single oral administration 0.12 mg/kg), 4.01 ± 3.65 in data set [2] (single oral administration 0.40 mg/kg) and 0.71 ± 0.94 in data set [2] (single oral administration 0.90 mg/kg). Besides, the “Ames test result” value in data set [3] is listed as “negative”. For the same molecule, in data set [4] (MK-801 mouse model, oral), the “effect on the open-field movement (in words)” value is “greater improvement ratio than RGH-188”. Moreover, the “Total distance of the spontaneous movement (cm)” value is 19482.27 ± 11047.75 cm in data set [4] (single oral administration 0.02 mg/kg), 17280.33 ± 9364.31 cm in data set [4] (single oral administration 0.03 mg/kg), 11145.52 ± 6988.56 cm in data set [4] (single oral administration 0.05 mg/kg) and 7796.38 ± 4382.94 cm in data set [4] (single oral administration 0.09 mg/kg).
Turning to `Cc1ccsc1C(=O)N[C@H]1CC[C@H](CCN2CCN(c3nsc4ccccc34)CC2)CC1` [Compound I-11, trans-N-(4-(2-(4-(benzo[d]isothiazol-3-yl)piperazin-1-yl)ethyl)cyclohexyl)-3-methylthienyl-2-carboxamide], the Ki on 5-HT2A receptor (setting [5]) worked out at 2.01 nM; at D2 receptor it was 4.81 nM; in data set [1] (setting [6]), 0.37 nM; at 5-HT1A receptor, 2.84 nM.
The like results for `CCc1c(C(=O)N[C@H]2CC[C@H](CCN3CCN(c4nsc5ccccc45)CC3)CC2)sc2ccccc12` [Compound I-13, trans-N-(4-(2-(4-(benzo[d]isothiazol-3-yl)piperazin-1-yl)ethyl)cyclohexyl)-3-ethylbenzo[b]thienyl-2-carboxamide] were, in that order, 4.9 nM, 1.78 nM, 1.42 nM and 4.07 nM.
The like results for `O=C(N[C@H]1CC[C@H](CCN2CCN(c3nsc4ccccc34)CC2)CC1)c1cc2cc([N+](=O)[O-])ccc2[nH]1` [Compound I-15, trans-N-(4-(2-(4-(benzo[d]isothiazol-3-yl)piperazin-1-yl)ethyl)cyclohexyl)-5-nitro-1H-indolyl-2-carboxamide] were, in that order, 2.65 nM, 21.3 nM, 4.03 nM and 8.45 nM.
The molecule `O=C(N[C@H]1CC[C@@H](CCN2CCN(c3nsc4ccccc34)CC2)CC1)c1cc2ccccc2[nH]1` [Compound I-22, cis-N-(4-(2-(4-(benzo[d]isothiazol-3-yl)piperazin-1-yl)ethyl)cyclohexyl)-1H-indolyl-2-carboxamide] displayed an LD50 at 6 days in the data set “in vivo” (ICR, po) of 1530 mg/kg. The results for the inhibitory constant (Ki) (at D2 receptor; in data set [1]) were 1.9 nM and 0.071 nM, respectively. Moreover, the ED50 in data set [2] came to 0.59 mg/kg; in data set [4], 0.062 mg/kg. In addition, in data set [3], the “Ames test result” value is reported as “negative”.
In the data set “in vivo” (ICR, po), `O=S(=O)(N[C@H]1CC[C@H](CCN2CCN(c3nsc4ccccc34)CC2)CC1)c1cccs1` [II-1, trans-N-(4-(2-(4-(benzo[d]isothiazol-3-yl)piperazin-1-yl)ethyl)cyclohexyl)thienyl-2-sulfamide] displayed an LD50 at 6 days greater than 2000 mg/kg. Moreover, the Ki on D2 receptor stood at 0.43 nM; in data set [1] (setting [6]), 0.043 nM; at 5-HT1A receptor it was 3.3 nM. The ED50 was 0.2 mg/kg in data set [2] and 0.074 mg/kg in data set [4]. For the same molecule, the “Ames test result” value in data set [3] is listed as “negative”.
As to `O=S(=O)(N[C@H]1CC[C@H](CCN2CCN(c3nsc4ccccc34)CC2)CC1)c1cc2ccccc2o1` [II-5, trans-N-(4-(2-(4-(benzo[d]isothiazol-3-yl)piperazin-1-yl)ethyl)cyclohexyl)benzofuryl-2-sulfamide], the median lethal dose (LD50) at 6 days in the data set “in vivo” (ICR, po) was found to be 1100 mg/kg. Further, the Ki was determined as 0.58 nM at D2 receptor, 0.085 nM in data set [1] and 10.6 nM on 5-HT1A receptor. For the same molecule, the ED50 in data set [2] amounted to 0.64 mg/kg; in data set [4], 0.088 mg/kg. Besides, the “Ames test result” value in data set [3] was “negative”.
In the case of `O=S(=O)(N[C@H]1CC[C@H](CCN2CCN(c3nsc4ccccc34)CC2)CC1)c1ccc(Cl)o1` [II-8, trans-N-(4-(2-(4-(benzo[d]isothiazol-3-yl)piperazin-1-yl)ethyl)cyclohexyl)-5-chlorofuryl-2-sulfamide], the Ki at 5-HT2A receptor (setting [5]) came out at 1.96 nM; at D2 receptor it was 10.8 nM; in data set [1] (setting [6]) it was 4.51 nM; at 5-HT1A receptor it was 3.96 nM.
As to `CC(C)COC(=O)N[C@H]1CC[C@H](CCN2CCN(c3nsc4ccccc34)CC2)CC1` [III-3, trans-N-(4-(2-(4-(benzo[d]isothiazol-3-yl)piperazin-1-yl)ethyl)cyclohexyl)isobutylcarbamate], in “in vivo” (setting [7]), the median lethal dose (LD50) at 6 days is greater than 2000 mg/kg. In addition, the values for the ED50 in data set [2] and in data set [4] were 0.76 mg/kg and 0.061 mg/kg, respectively. In addition, in data set [3], the “Ames test result” value is given as “negative”.
The like results for `O=C(N[C@H]1CC[C@H](CCN2CCN(c3nsc4ccccc34)CC2)CC1)OCc1ccccc1` [III-11] were, in that order, 1240 mg/kg, 0.1 mg/kg, 0.092 mg/kg and “negative”.
The like results for `COC(=O)N[C@H]1CC[C@@H](CCN2CCN(c3nsc4ccccc34)CC2)CC1` [III-14, cis-(4-(2-(4-(benzo[d]isothiazol-3-yl)piperazin-1-yl)ethyl)cyclohexyl)methylcarbamate] were, in that order, 1080 mg/kg, 0.45 mg/kg, 0.058 mg/kg and “negative”.
In the case of `O=C(Nc1ccccc1)N[C@H]1CC[C@H](CCN2CCN(c3nsc4ccccc34)CC2)CC1` [IV-1, trans-1-(4-(2-(4-(benzo[d]isothiazol-3-yl)piperazin-1-yl)ethyl)cyclohexyl)-3-phenylurea], the Ki at 5-HT2A receptor (setting [5]) was determined as 0.83 nM; on D2 receptor it was 1.06 nM; in data set [1] (setting [6]), 1.42 nM; on 5-HT1A receptor, 3.65 nM.
Consider `CN(C(=O)N[C@H]1CC[C@H](CCN2CCN(c3nsc4ccccc34)CC2)CC1)c1ccccc1` [IV-6, trans-3-(4-(2-(4-(benzo[d]isothiazol-3-yl)piperazin-1-yl)ethyl)cyclohexyl)-1-methyl-1-phenylurea], for which the 50% lethal dose (LD50) at 6 days in “in vivo” (ICR, po) turned out to be 1390 mg/kg. The values for the Ki (in data set [1]; on 5-HT1A receptor) were 0.13 nM and 4.6 nM, respectively. Further, the ED50 in data set [2] is 0.48 mg/kg; in data set [4] it was 0.084 mg/kg. For the same molecule, the “Ames test result” value in data set [3] is “negative”.
